# Assay results taken from PubChem BioAssay AID180 (DTP/NCI, 2004).
# “And” between values parts separate entries of the source, which are not always exact repeats. Identical values can stand only once.
# Tested on: BDF1 mice, Adenocarcinoma 755 s.c., tumor weight T/C
# Test: NCI In Vivo Anticancer Drug Screen. Data for tumor model Adenocarcinoma 755 (subcutaneous) in B6D2F1 (BDF1) mice
# Details: endpoint: mean tumor weight, higher = larger tumour
# Method: The antitumor activity of compounds was measured in mice bearing transplantable tumors. Survival or tumor size were measured and the results are expressed as the measurement made in the treated group (T) divided by the measurement made in the vehicle treated control group (C). The tumor model used in this assay is Adenocarcinoma 755 (subcutaneous) in B6D2F1 (BDF1) mice
# [1] = dose: 6.75 mg/kg/injection, schedule: Q01DX011 (ip), vehicle: methylcellulose (MC)
# [2] = dose: 75.0 mg/kg/injection, schedule: Q01DX011 (ip), vehicle: carboxymethylcellulose (CMC)
smiles,measurement,setting,value
Nc1nc(SCc2ccccc2Cl)c2ncn(C3OC(CO)C(O)C3O)c2n1 (stereo not given),T/C,"dose: 0.85 mg/kg/injection, schedule: Q01DX011 (ip), vehicle: methylcellulose (MC)",69 % of control
same,T/C,"dose: 1.7 mg/kg/injection, schedule: Q01DX011 (ip), vehicle: methylcellulose (MC)",22 % of control
same,T/C,"dose: 3.4 mg/kg/injection, schedule: Q01DX011 (ip), vehicle: methylcellulose (MC)",26 % of control
same,T/C,[1],4 % of control
CN(CC#N)/N=N/c1nc[nH]c1C(N)=O,T/C,"dose: 37.0 mg/kg/injection, schedule: Q01DX011 (ip), vehicle: carboxymethylcellulose (CMC)",108 % of control
same,T/C,[2],73 % of control
S=P(N1CCCCCC1)(N1CC1)N1CC1,T/C,"dose: 1.0 mg/kg/injection, schedule: Q01DX011 (ip), vehicle: carboxymethylcellulose (CMC)",92 % of control
same,T/C,"dose: 1.75 mg/kg/injection, schedule: Q01DX011 (ip), vehicle: saline",58 % of control
same,T/C,"dose: 2.0 mg/kg/injection, schedule: Q01DX011 (ip), vehicle: carboxymethylcellulose (CMC)",90 % of control
same,T/C,"dose: 3.13 mg/kg/injection, schedule: Q01DX011 (ip), vehicle: saline",68 % of control
same,T/C,"dose: 3.5 mg/kg/injection, schedule: Q01DX011 (ip), vehicle: saline",70 % of control
same,T/C,"dose: 4.0 mg/kg/injection, schedule: Q01DX011 (ip), vehicle: carboxymethylcellulose (CMC)",38 % of control
same,T/C,"dose: 6.25 mg/kg/injection, schedule: Q01DX011 (ip), vehicle: saline",26 % of control and 50 % of control
same,T/C,[1],36 % of control
same,T/C,"dose: 7.0 mg/kg/injection, schedule: Q01DX011 (ip), vehicle: saline",42 % of control
same,T/C,"dose: 7.5 mg/kg/injection, schedule: Q01DX011 (ip), vehicle: carboxymethylcellulose (CMC)",96 % of control
same,T/C,"dose: 8.0 mg/kg/injection, schedule: Q01DX011 (ip), vehicle: carboxymethylcellulose (CMC)",23 % of control
same,T/C,"dose: 13.5 mg/kg/injection, schedule: Q01DX011 (ip), vehicle: methylcellulose (MC)",33 % of control
same,T/C,"dose: 13.5 mg/kg/injection, schedule: Q01DX011 (ip), vehicle: saline",29 % of control
same,T/C,"dose: 14.0 mg/kg/injection, schedule: Q01DX011 (ip), vehicle: saline",5 % of control
same,T/C,"dose: 15.0 mg/kg/injection, schedule: Q01DX011 (ip), vehicle: carboxymethylcellulose (CMC)",43 % of control
same,T/C,"dose: 16.0 mg/kg/injection, schedule: Q01DX011 (ip), vehicle: carboxymethylcellulose (CMC)",6 % of control
same,T/C,"dose: 27.0 mg/kg/injection, schedule: Q01DX011 (ip), vehicle: saline",25 % of control
same,T/C,"dose: 30.0 mg/kg/injection, schedule: Q01DX011 (ip), vehicle: carboxymethylcellulose (CMC)",10 % of control
same,T/C,"dose: 54.0 mg/kg/injection, schedule: Q01DX011 (ip), vehicle: saline",24 % of control
Ic1ncnc2nc[nH]c12,T/C,"dose: 2.5 mg/kg/injection, schedule: Q01DX011 (ip), vehicle: carboxymethylcellulose (CMC)",90 % of control
same,T/C,"dose: 3.2 mg/kg/injection, schedule: Q01DX011 (oral), vehicle: carboxymethylcellulose (CMC)",78 % of control
same,T/C,"dose: 5.0 mg/kg/injection, schedule: Q01DX011 (ip), vehicle: carboxymethylcellulose (CMC)",90 % of control
same,T/C,"dose: 7.5 mg/kg/injection, schedule: Q01DX011 (oral), vehicle: carboxymethylcellulose (CMC)",41 % of control
same,T/C,"dose: 15.0 mg/kg/injection, schedule: Q01DX011 (oral), vehicle: carboxymethylcellulose (CMC)",14 % of control
same,T/C,"dose: 62.5 mg/kg/injection, schedule: Q01DX011 (ip), vehicle: carboxymethylcellulose (CMC)",21 % of control
CCC(C)Cn1cnc2c(SCc3ccccc3)nc(N)nc21 (stereo not given),T/C,"dose: 37.5 mg/kg/injection, schedule: Q01DX011 (ip), vehicle: carboxymethylcellulose (CMC)",68 % of control
same,T/C,[2],32 % of control
same,T/C,"dose: 150.0 mg/kg/injection, schedule: Q01DX011 (ip), vehicle: carboxymethylcellulose (CMC)",21 % of control
same,T/C,"dose: 300.0 mg/kg/injection, schedule: Q01DX011 (ip), vehicle: carboxymethylcellulose (CMC)",13 % of control
